According to ChEMBL document CHEMBL3758169, “4-Aminoindazolyl-dihydrofuro[3,4-d]pyrimidines as non-covalent inhibitors of mutant epidermal growth factor receptor tyrosine kinase” (Bioorg Med Chem Lett, 2016):

Columns and labels:
[1] = biological target: Mitogen-activated protein kinase kinase kinase 2 (Homo sapiens) (UniProt Q9Y2U5); experiment: Inhibition of MEKK2 (unknown origin) at 100 nM
Homo sapiens = species: Homo sapiens; experiment: Inhibition of MKK6 S207E/T211E double mutant (unknown origin) at 100 nM
[2] = biological target: Serine/threonine-protein kinase MRCK beta (Homo sapiens) (UniProt Q9Y5S2); experiment: Inhibition of MRCKbeta (unknown origin) at 100 nM
[3] = biological target: Ribosomal protein S6 kinase alpha-5 (Homo sapiens) (UniProt O75582); experiment: Inhibition of MSK1 (unknown origin) at 100 nM
[4] = biological target: Myosin light chain kinase, smooth muscle (Homo sapiens) (UniProt Q15746); experiment: Inhibition of MYLK (unknown origin) at 100 nM
[5] = biological target: Myosin light chain kinase (Homo sapiens) (UniProt Q32MK0); experiment: Inhibition of MYLK3 (unknown origin) at 100 nM
[6] = biological target: Misshapen-like kinase 1 (Homo sapiens) (UniProt Q8N4C8); experiment: Inhibition of MINK1 (unknown origin) at 100 nM
[7] = biological target: Serine/threonine-protein kinase Nek9 (Homo sapiens) (UniProt Q8TD19); experiment: Inhibition of NEK9 (unknown origin) at 100 nM
[8] = biological target: Platelet-derived growth factor receptor alpha (Homo sapiens) (UniProt P16234); experiment: Inhibition of PDGFRalpha (unknown origin) at 100 nM
[9] = biological target: Phosphatidylinositol 4-phosphate 3-kinase C2 domain-containing subunit beta (Homo sapiens) (UniProt O00750); experiment: Inhibition of PI3KC2b (unknown origin) at 100 nM
[10] = biological target: Phosphatidylinositol 3-kinase catalytic subunit type 3 (Homo sapiens) (UniProt Q8NEB9); experiment: Inhibition of PI3KC3/hVPS34 (unknown origin) at 100 nM
[11] = biological target: Protein kinase C gamma type (Homo sapiens) (UniProt P05129); experiment: Inhibition of PKCgamma (unknown origin) at 100 nM
[12] = biological target: Protein kinase C iota type (Homo sapiens) (UniProt P41743); experiment: Inhibition of PKCiota (unknown origin) at 100 nM
Sequence of Protein kinase C iota type (Homo sapiens) (P41743 whole entry): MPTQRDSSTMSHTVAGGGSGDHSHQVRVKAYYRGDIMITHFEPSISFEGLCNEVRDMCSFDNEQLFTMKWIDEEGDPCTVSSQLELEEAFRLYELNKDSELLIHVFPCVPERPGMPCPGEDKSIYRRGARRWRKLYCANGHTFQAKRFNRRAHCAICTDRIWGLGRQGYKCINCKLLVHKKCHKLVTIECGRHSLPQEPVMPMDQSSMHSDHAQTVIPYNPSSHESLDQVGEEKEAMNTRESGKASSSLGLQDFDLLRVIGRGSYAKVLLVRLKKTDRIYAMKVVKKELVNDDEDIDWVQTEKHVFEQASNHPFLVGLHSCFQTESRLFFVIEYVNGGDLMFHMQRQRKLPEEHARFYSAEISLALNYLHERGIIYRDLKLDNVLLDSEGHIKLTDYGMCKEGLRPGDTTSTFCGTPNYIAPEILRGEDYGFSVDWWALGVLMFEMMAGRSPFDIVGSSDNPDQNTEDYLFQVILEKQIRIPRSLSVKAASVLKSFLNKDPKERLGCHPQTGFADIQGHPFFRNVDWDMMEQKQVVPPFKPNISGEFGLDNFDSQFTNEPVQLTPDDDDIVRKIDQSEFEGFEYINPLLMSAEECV

[13] = biological target: Serine/threonine-protein kinase PLK3 (Homo sapiens) (UniProt Q9H4B4); experiment: Inhibition of PLK3 (unknown origin) at 100 nM
[14] = biological target: cAMP-dependent protein kinase catalytic subunit PRKX (Homo sapiens) (UniProt P51817); experiment: Inhibition of PRKX (unknown origin) at 100 nM
[15] = biological target: Rho-associated protein kinase 2 (Homo sapiens) (UniProt O75116); experiment: Inhibition of ROCK2 (unknown origin) at 100 nM
[16] = biological target: Tyrosine-protein kinase receptor TYRO3 (Homo sapiens) (UniProt Q06418); experiment: Inhibition of RSE (unknown origin) at 100 nM
[17] = biological target: Sphingosine kinase 2 (Homo sapiens) (UniProt Q9NRA0); experiment: Inhibition of SPHK2 (unknown origin) at 100 nM
Sequence of Sphingosine kinase 2 (Homo sapiens) (Q9NRA0 whole entry): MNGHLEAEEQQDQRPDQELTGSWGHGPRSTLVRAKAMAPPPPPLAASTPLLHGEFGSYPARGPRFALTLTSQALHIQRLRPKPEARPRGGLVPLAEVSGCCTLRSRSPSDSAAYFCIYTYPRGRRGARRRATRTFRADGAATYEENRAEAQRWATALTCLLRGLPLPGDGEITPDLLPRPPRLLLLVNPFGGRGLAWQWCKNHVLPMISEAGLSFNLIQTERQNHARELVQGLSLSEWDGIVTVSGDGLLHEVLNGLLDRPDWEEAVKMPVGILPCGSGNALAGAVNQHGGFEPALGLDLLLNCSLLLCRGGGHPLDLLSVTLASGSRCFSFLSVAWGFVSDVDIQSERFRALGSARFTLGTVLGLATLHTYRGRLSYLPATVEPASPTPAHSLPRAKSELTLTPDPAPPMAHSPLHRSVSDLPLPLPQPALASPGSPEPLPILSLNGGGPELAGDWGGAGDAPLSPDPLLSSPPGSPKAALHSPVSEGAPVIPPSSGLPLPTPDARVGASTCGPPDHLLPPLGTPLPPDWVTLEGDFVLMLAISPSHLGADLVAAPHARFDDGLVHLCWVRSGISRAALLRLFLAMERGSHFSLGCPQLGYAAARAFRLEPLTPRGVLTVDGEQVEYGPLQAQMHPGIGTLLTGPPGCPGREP

[18] = biological target: Serine/threonine-protein kinase 33 (Homo sapiens) (UniProt Q9BYT3); experiment: Inhibition of STK33 (unknown origin) at 100 nM
[19] = biological target: Activated CDC42 kinase 1 (Homo sapiens) (UniProt Q07912); experiment: Inhibition of TNK2 (unknown origin) at 100 nM
[20] = biological target: Dual specificity protein kinase TTK (Homo sapiens) (UniProt P33981); experiment: Inhibition of TTK (unknown origin) at 100 nM
[21] = biological target: Angiopoietin-1 receptor (Homo sapiens) (UniProt Q02763); experiment: Inhibition of TIE2 (unknown origin) at 100 nM
[22] = biological target: Serine/threonine-protein kinase WNK2 (Homo sapiens) (UniProt Q9Y3S1); experiment: Inhibition of WNK2 (unknown origin) at 100 nM
[23] = biological target: Mitogen-activated protein kinase 12 (Homo sapiens) (UniProt P53778); experiment: Inhibition of p38gamma(unknown origin) at 100 nM
[24] = biological target: Epidermal growth factor receptor (Homo sapiens, UniProt P00533, L858R/T790M); experiment: Inhibition of EGFR T790M/L858R mutant autophosphorylation in human H1975 cells; format: cell-based
Sequence of Epidermal growth factor receptor (P00533 25-1210 T790M/L858R limits assumed): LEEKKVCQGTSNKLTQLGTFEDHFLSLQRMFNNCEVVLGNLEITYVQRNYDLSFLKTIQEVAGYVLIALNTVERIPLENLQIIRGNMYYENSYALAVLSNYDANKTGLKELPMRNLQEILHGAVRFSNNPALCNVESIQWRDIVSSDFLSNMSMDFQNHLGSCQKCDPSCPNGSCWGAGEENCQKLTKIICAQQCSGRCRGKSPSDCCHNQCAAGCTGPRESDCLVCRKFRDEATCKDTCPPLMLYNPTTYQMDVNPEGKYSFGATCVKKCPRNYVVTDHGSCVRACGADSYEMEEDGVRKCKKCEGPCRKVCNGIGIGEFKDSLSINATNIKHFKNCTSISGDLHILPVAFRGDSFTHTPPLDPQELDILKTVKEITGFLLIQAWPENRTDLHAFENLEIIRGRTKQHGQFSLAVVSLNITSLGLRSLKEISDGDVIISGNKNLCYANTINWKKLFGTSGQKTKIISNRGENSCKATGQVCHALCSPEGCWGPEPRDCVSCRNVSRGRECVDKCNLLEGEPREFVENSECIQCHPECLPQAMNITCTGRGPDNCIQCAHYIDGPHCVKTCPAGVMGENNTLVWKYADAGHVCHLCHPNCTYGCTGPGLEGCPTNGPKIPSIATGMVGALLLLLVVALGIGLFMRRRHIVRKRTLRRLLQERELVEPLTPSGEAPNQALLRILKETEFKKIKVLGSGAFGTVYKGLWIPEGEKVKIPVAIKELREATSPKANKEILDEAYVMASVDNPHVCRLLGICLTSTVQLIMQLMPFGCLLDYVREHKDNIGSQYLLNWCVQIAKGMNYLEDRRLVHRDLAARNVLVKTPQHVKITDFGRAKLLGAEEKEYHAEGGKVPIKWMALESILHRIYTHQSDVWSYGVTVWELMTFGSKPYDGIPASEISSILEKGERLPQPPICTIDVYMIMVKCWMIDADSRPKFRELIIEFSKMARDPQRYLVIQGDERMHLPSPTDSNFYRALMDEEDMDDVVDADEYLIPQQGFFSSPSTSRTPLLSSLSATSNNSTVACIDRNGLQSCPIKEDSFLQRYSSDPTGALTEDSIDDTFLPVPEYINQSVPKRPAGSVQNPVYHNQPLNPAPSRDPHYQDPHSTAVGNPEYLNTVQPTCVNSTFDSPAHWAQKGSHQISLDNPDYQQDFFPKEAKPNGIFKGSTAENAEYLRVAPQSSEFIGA

[25] = biological target: Megakaryocyte-associated tyrosine-protein kinase (Homo sapiens) (UniProt P42679); experiment: Inhibition of Hyl (unknown origin) at 100 nM
[26] = biological target: Tyrosine-protein kinase Blk (Homo sapiens) (UniProt P51451); experiment: Inhibition of BLK (unknown origin) at 100 nM
[27] = biological target: Cyclin-dependent kinase 1/cyclin B1 (Homo sapiens) (UniProt P06493+P14635); experiment: Inhibition of CDK1/cyclinB (unknown origin) at 100 nM; format: protein-complex assay
[28] = biological target: Cyclin-dependent kinase 7/ cyclin H (Homo sapiens) (UniProt P51946+P50613); experiment: Inhibition of CDK7/cyclinH (unknown origin) at 100 nM; format: protein-complex assay
[29] = biological target: CDK9/Cyclin K (Homo sapiens) (UniProt P50750+O75909); experiment: Inhibition of CDK9/cyclinK (unknown origin) at 100 nM; format: protein-complex assay
[30] = biological target: Dual specificity protein kinase CLK4 (Homo sapiens) (UniProt Q9HAZ1); experiment: Inhibition of CLK4 (unknown origin) at 100 nM
Sequence of Dual specificity protein kinase CLK4 (Homo sapiens) (Q9HAZ1 whole entry, looked up): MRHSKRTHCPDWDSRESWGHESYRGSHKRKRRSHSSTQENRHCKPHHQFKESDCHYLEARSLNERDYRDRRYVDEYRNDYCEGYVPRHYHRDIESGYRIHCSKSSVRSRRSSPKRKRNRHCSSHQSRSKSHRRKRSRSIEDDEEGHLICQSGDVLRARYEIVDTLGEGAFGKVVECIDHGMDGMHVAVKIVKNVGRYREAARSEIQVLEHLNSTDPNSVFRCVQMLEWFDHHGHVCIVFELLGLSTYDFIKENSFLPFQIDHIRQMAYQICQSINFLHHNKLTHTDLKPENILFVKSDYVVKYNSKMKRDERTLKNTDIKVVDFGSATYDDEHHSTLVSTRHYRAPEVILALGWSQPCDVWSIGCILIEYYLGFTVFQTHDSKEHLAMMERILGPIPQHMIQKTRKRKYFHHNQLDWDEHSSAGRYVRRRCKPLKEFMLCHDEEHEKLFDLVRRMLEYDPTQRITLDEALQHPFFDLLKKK

[31] = biological target: Death-associated protein kinase 1 (Homo sapiens) (UniProt P53355); experiment: Inhibition of DAPK1 (unknown origin) at 100 nM
[32] = biological target: Discoidin domain-containing receptor 2 (Homo sapiens) (UniProt Q16832); experiment: Inhibition of DDR2 (unknown origin) at 100 nM
[33] = biological target: Ephrin type-A receptor 3 (Homo sapiens) (UniProt P29320); experiment: Inhibition of EPHA3 (unknown origin) at 100 nM
[34] = biological target: Ephrin type-B receptor 2 (Homo sapiens) (UniProt P29323); experiment: Inhibition of EPHB2 (unknown origin) at 100 nM
[35] = biological target: Focal adhesion kinase 1 (Homo sapiens) (UniProt Q05397); experiment: Inhibition of FAK (unknown origin) at 100 nM
[36] = biological target: Fibroblast growth factor receptor 2 (Homo sapiens) (UniProt P21802); experiment: Inhibition of FGFR2 (unknown origin) at 100 nM
[37] = biological target: Vascular endothelial growth factor receptor 1 (Homo sapiens) (UniProt P17948); experiment: Inhibition of FLT1 (unknown origin) at 100 nM
[38] = biological target: G protein-coupled receptor kinase 5 (Homo sapiens) (UniProt P34947); experiment: Inhibition of GRK5 (unknown origin) at 100 nM
[39] = biological target: Rhodopsin kinase GRK7 (Homo sapiens) (UniProt Q8WTQ7); experiment: Inhibition of GRK7 (unknown origin) at 100 nM
Sequence of Rhodopsin kinase GRK7 (Homo sapiens) (Q8WTQ7 whole entry): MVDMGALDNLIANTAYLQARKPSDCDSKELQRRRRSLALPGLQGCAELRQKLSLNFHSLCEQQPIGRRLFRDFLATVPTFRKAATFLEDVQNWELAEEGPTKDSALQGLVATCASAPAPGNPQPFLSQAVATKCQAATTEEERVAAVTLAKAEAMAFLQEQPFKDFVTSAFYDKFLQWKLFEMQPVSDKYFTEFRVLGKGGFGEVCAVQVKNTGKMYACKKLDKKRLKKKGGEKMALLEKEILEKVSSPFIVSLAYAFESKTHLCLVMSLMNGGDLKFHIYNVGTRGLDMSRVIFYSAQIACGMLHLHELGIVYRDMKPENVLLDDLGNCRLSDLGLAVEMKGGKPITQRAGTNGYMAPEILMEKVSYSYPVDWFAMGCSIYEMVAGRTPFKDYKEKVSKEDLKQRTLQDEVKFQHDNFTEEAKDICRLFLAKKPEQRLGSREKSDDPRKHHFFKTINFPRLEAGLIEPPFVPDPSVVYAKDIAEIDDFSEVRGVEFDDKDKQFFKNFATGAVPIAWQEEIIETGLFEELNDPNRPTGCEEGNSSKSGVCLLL

[40] = biological target: Glycogen synthase kinase-3 alpha (Homo sapiens) (UniProt P49840); experiment: Inhibition of GSK3aplha (unknown origin) at 100 nM
[41] = biological target: Mitogen-activated protein kinase kinase kinase kinase 5 (Homo sapiens) (UniProt Q9Y4K4); experiment: Inhibition of KHS1 (unknown origin) at 100 nM
[42] = biological target: Casein kinase II subunit alpha' (Homo sapiens) (UniProt P19784); experiment: Inhibition of CK2alpha2 (unknown origin) at 100 nM

Sequence of Mitogen-activated protein kinase kinase kinase 2 (Homo sapiens) (Q9Y2U5 whole entry): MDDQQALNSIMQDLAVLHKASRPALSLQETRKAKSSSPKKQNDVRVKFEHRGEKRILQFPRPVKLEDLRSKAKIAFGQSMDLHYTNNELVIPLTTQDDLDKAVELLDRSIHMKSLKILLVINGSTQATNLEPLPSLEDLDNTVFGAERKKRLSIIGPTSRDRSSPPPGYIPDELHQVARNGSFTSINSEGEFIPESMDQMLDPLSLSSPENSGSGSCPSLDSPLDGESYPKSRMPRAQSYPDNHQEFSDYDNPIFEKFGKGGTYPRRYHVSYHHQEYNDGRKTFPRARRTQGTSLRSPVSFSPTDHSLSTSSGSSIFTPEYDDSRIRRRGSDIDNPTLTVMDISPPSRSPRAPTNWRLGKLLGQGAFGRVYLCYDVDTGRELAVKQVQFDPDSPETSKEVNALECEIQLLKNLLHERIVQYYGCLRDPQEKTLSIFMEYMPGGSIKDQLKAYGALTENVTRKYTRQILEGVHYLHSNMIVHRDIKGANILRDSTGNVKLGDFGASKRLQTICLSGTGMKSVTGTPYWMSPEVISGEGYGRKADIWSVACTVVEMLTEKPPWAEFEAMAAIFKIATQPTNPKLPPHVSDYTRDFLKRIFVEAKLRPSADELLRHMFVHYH

inhibition [1]: 43.6%
inhibition (Homo sapiens): 10.2%
inhibition [2]: -3.9%
inhibition [3]: 11.5%
inhibition [4]: 2.8%
inhibition [5]: 20.6%
inhibition [6]: 12.9%
inhibition [8]: 57.1%
inhibition [9]: 18.8%
inhibition [10]: 7.4%
inhibition [11]: 16.4%
inhibition [12]: -1.5%
inhibition [13]: -5.4%
inhibition [14]: 8.4%
inhibition [15]: -10%
inhibition [16]: 5.8%
inhibition [17]: -9.8%
inhibition [18]: 4.2%
inhibition [19]: 7.8%
inhibition [20]: 4.3%
inhibition [21]: -0.1%
inhibition [22]: 3.4%
inhibition [23]: 10.3%
IC50 [24]: 0.6 µM
inhibition [25]: 0.8%
inhibition [26]: 67.7%
inhibition [27]: -3.1%
inhibition [28]: 14.3%
inhibition [29]: -3.7%
inhibition [30]: 13.3%
inhibition [32]: 23.4%
inhibition [33]: 4.2%
inhibition [34]: 15.3%
inhibition [35]: 7.2%
inhibition [36]: 54%
inhibition [37]: 71.8%
inhibition [38]: -1.4%
inhibition [39]: 0.8%
inhibition [40]: 30.8%
inhibition [41]: 12.7%
inhibition [42]: 4.2%
Compound: CC1(C)OCc2c(Nc3n[nH]c4ccccc34)nc(-c3cn[nH]c3)nc21
inhibition [7]: -0.2%
inhibition [31]: 2.2%
